Results as given in US20260265280A1, “Prevention/Treatment of Ischemic Reperfusion Injury” (Rev Therapeutics, priority 2023, published 2026).
In brackets after ≈: the same amount, converted by molar mass. Several values for one entry are separate records, joined by “and”; a condition that tells them apart may be missing. Equal values may be shown once. Marks after values point to notes of the source that are not given here.

Tests used:
[1] = Thermodynamic solubility assay (shake flask, HPLC-UV) in PBS; type: physicochemical; details: for solubility thermodynamic at 24 h: 25 °C, aqueous buffer, thermodynamic from solid
Procedure: Solubility Study: The thermodynamic solubility assay employed was the shake flask method followed by HPLC analysis. The method prepared a saturated solution of the compound, followed by an assay of the solution using HPLC and UV detection. […] About 18 mg compound powder was weighed and placed in a 2 mL glass vial, then PBS buffer was introduced into the vial to obtain a 30-60 mg/mL target concentration. This solution was vortexed for 2 minutes. The solutions were incubated and shook on an orbital shaker for 24 hr at room temperature (25±2° C.). About 500 μL solubility solution was transferred into a new MultiScreen filter plate (Membrane of polycarbonate), filtered by millipore vacuum manifold, and collected in the filtrate as the TS solution. The filtrate was diluted with PBS buffer by a factor of 20 fold to make it diluent. Three UV standard solutions (20, 200, 2000 μg/mL) were injected into HPLC from low to high concentration, followed by testing of the diluent. Testing samples were injected in duplicate. The filtrate was analyzed by HPLC equipped with UV, and the solubility was calculated based on acquired peak areas and dilution factors with a standard external method.

[2] = In vivo rat pharmacokinetic studies (cleavage of compounds into compound Z); details: for Compound Z Present in Plasma at 2 hr After i.p. dose: i.p. dose of compound Qx
Procedure: Rat pharmacokinetic study samples were used for PK characterization. Male Sprague-Dawley rats weighing 150-300 g were intraperitoneal (ip), intravenous (i.v.) dosed formulated in PBS, pH 7.4. The blood samples at several times post dosing were collected and advanced to plasma preparation with K2EDTA as an anticoagulant.
The blank plasma samples used for the PK characterization control were prepared from undosed rat groups. After IV administration, the amount of parent compound remaining at 0.5 hours after dosing was used as a measure of the cleavage rate. After IP administration, the amount of parent compound remaining at 2 hours after dosing was used as a measure of the cleavage rate. We sought compounds with >90% cleavage.

[3] = test system: kidney ischemia-reperfusion injury; assay: Rat bilateral short-warm kidney ischemia-reperfusion injury (IRI / AKI) system; type: in vivo, Male outbred Sprague-Dawley rats; details: oral 103 mg/kg
Procedure: Brief description of AKI Study: The study examined rats given oral compound Q8 three times at −1 hour, +10 hours, and 24 h post-lesion, or nine times over four days, at −1 hr, +10 hours and every morning and evening. The dose chosen was 103 mg/kg (0.134 mmol/kg). Control groups include a sham operation group receiving drug vehicle, peritoneum open but no ligature application to the kidney artery. A vehicle group in which the artery ligature was applied served as the lesion group. […] This chosen amount is also between the IC95 and the IC50 inhibition of Jnk activity in cell extracts and human PBMCs (Krenitsky et al. Bioorganic & Medicinal Chemistry Letters, 22(3), pp. 1433-1438). It is also similar to the oral Cavg exposure of compound Z at 60 mg/kg, which is an effective dose of compound Z in rat models of AKI (Grynberg et al. Am J Pathol 191:817-828, 2021).
Rat bilateral short-warm kidney ischemia-reperfusion injury (“IRI”) system: Male outbred Sprague-Dawley rats (approximately 300 g from the Monash Animal Research Platform), six/group, were anesthetized using ketamine/xylazine, and surgery performed with both renal pedicles clamped for 25 minutes (ischemia) then released (reperfusion) as previously described (Grynberg et al. Am J Pathol 191:817-828, 2021). […]
Staining used rabbit monoclonal antibodies recognizing collagen I (E8F4L, 1 in 400 dilutions; Cell Signaling Technology, Danvers, MA, USA), followed by biotinylated […] (BA-400, 1 in 500 dilutions; Thermo Fisher, Waltham, MA, USA), and the VECTASTAIN® Elite® ABC-HRP Kit (PK-6100). The interstitial collagen I deposition area was assessed in the outer medulla and cortex by image analysis, avoiding medium and large arteries, using cellSens software V1.18 (Olympus, Notting Hill, Victoria, Australia) as previously described (Leong et al. Toxins 13:700, 2021). […]
Statistical Analysis: Data are shown as means±1 SD. Data were analyzed by one-way analysis of variance with the Tukey multiple comparison tests using GraphPad Prism 9.0 software (GraphPad Software, San Diego, CA).

[4] = test system: kidney ischemia-reperfusion injury; details: oral; Grynberg et al.; cited from earlier work
[5] = test system: cJun phosphorylation; details: human skin; cited from earlier work
[6] = PBS buffer, PBS pH 7.4, shaken 24 hr at room temperature (25±2° C.)
[7] = PBS pH 7.4, shaken 24 hr at room temperature (25±2° C.)
[8] = studied at 1 mg/kg in PBS, linearly scaled to 2 mg/kg equivalent dose

CC(=O)O[C@H]1CC[C@H](Nc2ncc3nc(Nc4c(F)cc(F)cc4F)n([C@H]4CCOC4)c3n2)CC1 [Compound Q10, [4-[[9-[(3S)-Tetrahydrofuran-3-yl]-8-(2,4,6-trifluoroanilino)purin-2-yl]amino]cyclohexyl] acetate]
solubility thermodynamic at 24 h [1, 6]: 75.2 µg/mL

C[N+](C)(C)CCOC(=O)O[C@H]1CC[C@H](Nc2ncc3nc(Nc4c(F)cc(F)cc4F)n([C@H]4CCOC4)c3n2)CC1 [Compound Q12, trimethyl-[2-[4-[[9-[(3S)-tetrahydrofuran-3-yl]-8-(2,4,6-trifluoroanilino)purin-2-yl]amino]cyclohexoxy]carbonyloxyethyl]ammonium]
solubility thermodynamic at 24 h [1, 6]: 29600 µg/mL
concentration at 2 h ([2]; male, Sprague-Dawley, plasma, ip, 2 mg/kg): 214 ng/mL

CCOC(=O)OC1CCC(Nc2ncc3nc(Nc4c(F)cc(F)cc4F)n([C@H]4CCOC4)c3n2)CC1 (stereo partly drawn) [Compound Q13, Ethyl [4-[[9-[(3S)-tetrahydrofuran-3-yl]-8-(2,4,6-trifluoroanilino)purin-2-yl]amino]cyclohexyl] carbonate]
solubility thermodynamic at 24 h [1, 6]: < 20 µg/mL

O=P([O-])([O-])OP(=O)([O-])OC1CCC(Nc2ncc3nc(Nc4c(F)cc(F)cc4F)n([C@H]4CCOC4)c3n2)CC1.[Na+].[Na+].[Na+] (stereo partly drawn) [Compound Q9, [Disodiooxyphosphoryloxy-[4-[[9-[(3S)-tetrahydrofuran-3-yl]-8-(2,4,6-trifluoroanilino)purin-2-yl]amino]cyclohexoxy]phosphoryl]oxysodium]
solubility thermodynamic at 24 h [1, 7]: 19400 µg/mL
Compound Qx Present in Plasma at 2 hr After i.p. dose ([2]; studied at 2 mg/kg in PBS): BQL
Compound Qx Present in Plasma at 0.5 hr After i.v. dose [2, 8]: BQL

O=P([O-])([O-])OCn1/c(=N\c2c(F)cc(F)cc2F)n([C@H]2CCOC2)c2nc(NC3CCC(O)CC3)ncc21.[Na+].[Na+] (stereo partly drawn) [Compound Q8, [[(8Z)-2-[(4-hydroxycyclohexyl)amino]-9-[(3S)-tetrahydrofuran-3-yl]-8-(2,4,6-trifluorophenyl)imino-purin-7-yl]methoxy-sodiooxy-phosphoryl]oxysodium]
improvement in solubility over known compound Z ([1]; PBS): 751 fold
solubility thermodynamic at 24 h [1, 6]: 45600 µg/mL
reduction of fibrosis component Coll histological staining ([3]; D21 post-lesion): 73%
reduction of tubular damage ([3]; Day 7 post-lesion, PAS stained sections, outer medulla): 65%
reduction of serum/plasma creatinine levels (kidney dysfunction) ([3]; three doses or nine doses over four days, vs. 1D vehicle): 87-88%
Compound Qx Present in Plasma at 2 hr After i.p. dose ([2]; studied at 29.8 mg/kg in PBS, linearly scaled to 2 mg/kg equivalent dose): 12^# ng/mL
concentration at 0.5 h ([2]; male, Sprague-Dawley, plasma, intravenous, 1 mg/kg): 21 ng/mL

[4-[[9-[(3S)-Tetrahydro furan-3-yl]-8-(2,4,6-trifluoroanilino)purin-2-yl]amino]cyclohexyl] disodium phosphate [Compound Q7]
compound still present at 2 hrs post-dosing ([2]; 2 hr post-dosing): 30%
Compound Z Present in Plasma at 2 hr After i.p. dose ([2]; studied at 2 mg/kg in PBS): 83.5 ng/mL
Compound Qx Present in Plasma at 2 hr After i.p. dose ([2]; studied at 2 mg/kg in PBS): 36 ng/mL
Compound Z Present in Plasma at 0.5 hr After i.v. dose ([2]; i.v. dose of compound Qx, studied at 1 mg/kg in PBS, linearly scaled to 2 mg/kg equivalent dose): 232 ng/mL
Compound Qx Present in Plasma at 0.5 hr After i.v. dose [2, 8]: 13 ng/mL

CCOC(=O)n1/c(=N\c2c(F)cc(F)cc2F)n([C@H]2CCOC2)c2nc(N[C@H]3CC[C@H](O)CC3)ncc21 [Compound Q11]
solubility thermodynamic at 24 h [1, 6]: < 20 µg/mL

O[C@H]1CC[C@H](Nc2ncc3nc(Nc4c(F)cc(F)cc4F)n([C@H]4CCOC4)c3n2)CC1 [Z, 4-[[9-[(3S)-tetrahydrofuran-3-yl]-8-(2,4,6-trifluoroanilino)purin-2-yl]amino]cyclohexanol]
solubility thermodynamic at 24 h [1, 6]: 60.6 µg/mL (≈ 135 µM)
effective dose in rat models of AKI [4]: 60 mg/kg
plasma concentration that achieved efficacy (suppression of cJun phosphorylation) [5]: 3.4 uM and 1560 ng/mL

Trimethyl-[2-oxo-2-[4-[[9-[(3S)-tetrahydrofuran-3-yl]-8-(2,4,6-trifluoroanilino)purin-2-yl]amino]cyclohexoxy]ethyl]ammonium [Compound Q15]
Thermodynamic Solubility in PBS [1, 7]: 17340 µg/mL
Compound Z Present in Plasma at 2 hr After i.p. dose ([2]; studied at 2 mg/kg in PBS): 26.5 ng/mL
Compound Qx Present in Plasma at 2 hr After i.p. dose ([2]; studied at 2 mg/kg in PBS): 125 ng/mL

CC(=O)OCn1/c(=N\c2c(F)cc(F)cc2F)n([C@H]2CCOC2)c2nc(N[C@H]3CC[C@H](O)CC3)ncc21 [Compound Q16, [(8Z)-2-[(4-hydroxycyclohexyl)amino]-9-[(3S)-tetrahydrofuran-3-yl]-8-(2,4,6-trifluorophenyl)imino-purin-7-yl]methyl acetate]
solubility thermodynamic at 24 h [1, 6]: 114 µg/mL

CN(C)C(=O)O[C@H]1CC[C@H](Nc2ncc3nc(Nc4c(F)cc(F)cc4F)n([C@H]4CCOC4)c3n2)CC1 [Compound Q14, [4-[[9-[(3S)-tetrahydrofuran-3-yl]-8-(2,4,6-trifluoroanilino)purin-2-yl]amino]cyclohexyl] N,N-dimethylcarbamate]
solubility thermodynamic at 24 h [1, 6]: < 20 µg/mL
